Measurements as given in US20260098019A1, “SYNTHESIS OF NSAID CONJUGATES AS ANTI-INFLAMMATORY AGENTS USING THE MOLECULAR HYBRIDIZATION” (AUGUSTA UNIVERSITY RESEARCH INSTITUTE, INC., priority 2022, published 2026).
Where two headings read alike, the source gives them in different places. Marks after values point to notes of the source that are not given here.

Assays:
[1] = tested on: hot plate latency; experiment: hot plate test (central analgesic); type: in vivo, albino mice; conditions: for Latency period ± SE: 10 mg/kg indomethacin mol equivalent i.p., cutoff 15 seconds; for % Protection: vs control; for Potency: at 120 min. compared to indomethacin; for Observed property: % Protection central analgesic (120 min)
Protocol: An in vivo standard hot plate test was performed. […] The control group animals were given sterile/distilled water with few drops of Tween 80. The maximum cutoff time was 15 seconds to prevent tissue damage. Response latencies were measured at 30, 60, 90 and 120 inns. The % protection was calculated by equ. (5), where, Ti, To are the latency time mean of the tested compound and control group respectively (Table 3).

[2] = toxicological bioassay; conditions: 50 mg/kg indomethacin mol equivalent (5 folds of anti-inflammatory dose); 24 h post-administration
Protocol: Albino mice weighing 20-25 g were divided into 6 groups of 6 mice each. […] The toxic symptoms and mortality rates were recorded 24 h post-administration in each group.
Five times of the anti-inflammatory dose was orally administrated.

[3] = target: COX-1 (UniProt P05979); type: biochemical, human; conditions: ± SD
Sequence of COX-1 (P05979 whole entry): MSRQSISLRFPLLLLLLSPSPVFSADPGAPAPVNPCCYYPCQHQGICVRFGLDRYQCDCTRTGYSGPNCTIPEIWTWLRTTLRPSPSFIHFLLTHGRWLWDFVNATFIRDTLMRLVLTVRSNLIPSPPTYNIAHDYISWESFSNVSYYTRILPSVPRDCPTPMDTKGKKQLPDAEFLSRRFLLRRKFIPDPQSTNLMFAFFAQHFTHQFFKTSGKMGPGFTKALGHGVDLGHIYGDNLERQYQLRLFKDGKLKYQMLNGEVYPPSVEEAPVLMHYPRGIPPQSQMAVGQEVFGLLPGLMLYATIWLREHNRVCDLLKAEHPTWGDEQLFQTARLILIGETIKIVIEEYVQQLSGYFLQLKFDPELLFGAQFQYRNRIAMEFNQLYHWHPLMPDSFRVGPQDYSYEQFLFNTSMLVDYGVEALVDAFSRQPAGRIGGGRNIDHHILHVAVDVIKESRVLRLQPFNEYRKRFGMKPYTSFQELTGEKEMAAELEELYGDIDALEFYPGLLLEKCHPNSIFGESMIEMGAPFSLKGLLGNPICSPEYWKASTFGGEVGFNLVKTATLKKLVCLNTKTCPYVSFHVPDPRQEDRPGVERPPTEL
Description: (§1) Rev. […] Thromb. Vasc. […] Rev. […] Rev. […] Rev. Oncol. Hematol. […] Curr. Pharm. Des. […] Luong, et al., Nat. Struct. […] A. and Marnett, L. J., Chem. Rev. […] Drug Discov. […] Biomol.

[4] = target: T1, COX-2 (Homo sapiens, UniProt P35354); experiment: Inhibition of COX-2; type: biochemical; conditions: for SI: SI=IC50 (COX-1)/IC50 (COX-2); for IC50: ± SD
T1 construct: purchased BioVision Incorporated K547-100 and K548-100 (for COX-1/2)
T1 sequence (P35354 18-604): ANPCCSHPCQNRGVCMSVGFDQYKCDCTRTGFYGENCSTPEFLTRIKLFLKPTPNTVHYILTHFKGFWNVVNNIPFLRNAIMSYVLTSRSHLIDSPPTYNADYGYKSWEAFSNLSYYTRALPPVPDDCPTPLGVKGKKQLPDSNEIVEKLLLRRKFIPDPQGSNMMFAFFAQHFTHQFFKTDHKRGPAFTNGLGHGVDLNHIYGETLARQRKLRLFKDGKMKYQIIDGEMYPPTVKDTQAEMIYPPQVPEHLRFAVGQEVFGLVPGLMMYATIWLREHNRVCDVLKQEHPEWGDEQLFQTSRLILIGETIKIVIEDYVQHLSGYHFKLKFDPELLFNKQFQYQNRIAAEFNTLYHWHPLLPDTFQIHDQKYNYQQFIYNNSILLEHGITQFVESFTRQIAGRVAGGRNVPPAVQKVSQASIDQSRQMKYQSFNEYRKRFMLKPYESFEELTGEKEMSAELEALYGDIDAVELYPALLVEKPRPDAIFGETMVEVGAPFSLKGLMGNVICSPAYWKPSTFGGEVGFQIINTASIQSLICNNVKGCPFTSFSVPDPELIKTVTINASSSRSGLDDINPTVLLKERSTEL
Description: as §1

[5] = tested on: gastric mucosa; conditions: mouse, in vivo
Protocol: (§2) The ulcerogenic liability of conjugates was determined in albino mice following a standard method. Animals of either sex (pregnant females were excluded) weighing 20-25 g were divided into 8 groups of 6 animals each. The animals fasted 18 h before drug administration. […] The control group animals were given water with a few drops of Tween 80. The animals were sacrificed by cervical dislocation and the stomach was removed, opened along the greater curvature, and rinsed with saline. The gastric mucosa was examined with a magnifying lens (10×) for the presence of lesions and erosions. The ulcer index was calculated (Table 4) and the degree of ulcerogenic effect was expressed in terms of: (1) the percentage incidence of ulcers divided by 10; (2) average number of ulcers per stomach; and (3) average severity of ulcers. The ulcer index is the value that resulted from the sum of the above three values.

[6] = tested on: acetic acid-induced writhing; experiment: acetic acid-induced writhing test (peripheral analgesic); type: in vivo, albino mice; conditions: for Potency: % inhibition/protection compared to indomethacin; for % Inhibition/protection: vs control; for 1/(observed property): 1/(% inhibition) peripheral analgesic; for Observed property: % inhibition/protection peripheral analgesic
Protocol: Peripheral analgesic activity was measured by the standard acetic acid-induced writhing test in mice. […] One hour after the i.p. administration, each mouse was injected with 0.1 ml of 1% acetic acid solution i.p. The control group animals were given sterile/distilled water with few drops of Tween 80. Starting 5 min after the acetic acid injection, the number of muscular contractions in each mouse was counted for 30 min. A significant reduction in the number of writhing by a conjugate compared with control animals was considered as a positive analgesic response. Percentage protection was calculated according to equ. (3), where n is the average number of writhing in the control group and n′ is the average number of writhing in the treated group. The % potency was calculated by equ. (4) (Table 2).

[7] = tested on: gastric mucosa; experiment: ulcerogenic liability; conditions: for ulcers or erosions to the gastric / ulcerogenic liability (in words): mice; for ulcers or erosions to the gastric / ulcerogenic liability (in words) / % Incidence of ulcer divided by 10 / Average of ulcer number / Average severity of ulcer / Number of animals with ulcer: oral; for % Incidence of ulcer divided by 10 / Average of ulcer number / Average severity of ulcer / Number of animals with ulcer: three successive days, 10 mg/kg indomethacin mol equivalent; for Number of animals with ulcer: 6 animals; for Ulcer index: sum of the three values
Protocol: as §2

[8] = tested on: LPS-stimulated RAW264.7 macrophages; experiment: NO production (nitrite, Griess method) in LPS-stimulated RAW264.7; type: cell-based; conditions: LPS 10 ng/mL
Protocol: The Griess method was used to determine the nitrite concentration in cell culture medium. […] The next day, a volume of 150 μL of the cell supernatant was transferred to a new 96-well plate and 130 μL of deionized water was added on top of it. Lastly, a volume of 20 μL of Griess reagent was added to the cell supernatant and incubated for 30 min in the dark at room temperature. Griess reagent was prepared according to instructions: 1:1 ratio of N-1-naphthyl-ethylenediamine (0.1%) and phosphoric acid (5%) in sulphanilamide (1%) in distilled water. […] The concentration of nitrite was determined using a NaNO2 standard curve.
The nitrite production in the supernatant in the culture medium was measured using Greiss reaction.

[9] = tested on: RAW264.7 macrophages; experiment: cell viability, MTT assay; type: cell-based; conditions: LPS-stimulated cells treated, FIG. 2B
Protocol: To ensure that the inflammatory response is not due to cell toxicity, cell viability measurements were done using MTT colorimetric assay. On the same cell cultured 96-well plate from the previous experiment, 100 μL of 1 mg/mL MTT solution was added to the adherent RAW264.7 macrophages cells at 37° C. and incubated for 2 h. After that, 100 μL of DMSO was added to the wells to dissolve insoluble formazan crystals. Absorbance was measured spectrophotometrically at 540 nm using a NanoSPECTROstar microplate reader (BMG LABTECH, Germany). Cell viability was then calculated as a percentage of untreated control.
Cytotoxicity of the macrophages was evaluated using MTT assay.

[10] = 10 mg/kg indomethacin mol equivalent i.p.

C#CCOC(=O)C(C)c1ccc(CC(C)C)cc1 (stereo not drawn) [Compound 3, prop-2-yn-1-yl 2-(4-isobutylphenyl) propanoate]
Latency period ± SE ([1]; After 30 min.): 10.37 s
% Protection ([1]; After 30 min.): (55.2) %
Latency period ± SE ([1]; After 60 min.): 10.78 s
% Protection ([1]; After 60 min.): 2.1** (48.3) %
Latency period ± SE ([1]; After 90 min.): 10.62 ± 2.2 s
% Protection ([1]; After 90 min.): (19.2) %
Latency period ± SE ([1]; After 120 min.): 10.35 ± 1.7 s
% Protection ([1]; After 120 min.): (14.9) %
Potency [1]: 26.4%
toxic symptoms and mortality [2]: No toxic symptoms or mortality
IC50 [3]: 19.4 ± 0.55 µM
SI [4]: 2.262
IC50 [4]: 8.6 ± 0.24 µM
Ulcer index [5]: 4.33
% Incidence of ulcer divided by 10 ([5]; po, 10 mg/kg): 3.33
Average of ulcer number ([5]; po, 10 mg/kg): 0.33
Average severity of ulcer ([5]; po, 10 mg/kg): 0.67
Number of animals with ulcer ([5]; po, 10 mg/kg): 2/6
Potency [6]: 100.0%
Writing reflex ± SE ([6]; number of writhing counted for 30 min, 10 mg/kg indomethacin mol equivalent i.p.): 11.3 ± 0.9
% Inhibition/protection [6, 10]: 71.8%

CC(C)Cc1ccc(C(C)C(=O)OCc2cn(-c3ccc(Cl)cc3)nn2)cc1 (stereo not drawn) [Compound 5b, (1-(4-Chlorophenyl)-1H-1,2,3-triazol-4-yl)methyl 2-(4-isobutylphenyl)propanoate]
Observed property [1]: 27.1
ulcers or erosions to the gastric / ulcerogenic liability (in words) [7]: none and No ulcerogenic liability
% Incidence of ulcer divided by 10 [7]: 0
Average of ulcer number [7]: 0
Average severity of ulcer [7]: 0
Number of animals with ulcer [7]: 0
Ulcer index [7]: 0
IC50 [3]: 119 ± 3.4 µM
1/(observed property) [6]: 0.01143
Observed property [6]: 87.5
% Inhibition/protection [6, 10]: 87.5%

Cc1ccc(-n2cc(COC(=O)C(C)c3ccc(CC(C)C)cc3)nn2)cc1 (stereo not drawn) [Compound 5d, (1-(p-Tolyl)-1H-1,2,3-triazol-4-yl)methyl 2-(4-isobutylphenyl)propanoate]
Observed property [1]: 1.2
ulcers or erosions to the gastric / ulcerogenic liability (in words) [7]: none and No ulcerogenic liability
% Incidence of ulcer divided by 10 [7]: 0
Average of ulcer number [7]: 0
Average severity of ulcer [7]: 0
Number of animals with ulcer [7]: 0
Ulcer index [7]: 0
IC50 [3]: 9.64 ± 0.27 µM
SI [4]: 2.158
IC50 [4]: 4.47 ± 0.13 µM
1/(observed property) [6]: 0.01212
Observed property [6]: 82.5

COc1ccccc1-n1cc(COC(=O)C(C)c2ccc(CC(C)C)cc2)nn1 (stereo not drawn) [Compound 5e, (1-(2-Methoxyphenyl)-1H-1,2,3-triazol-4-yl)methyl 2-(4-isobutylphenyl)propanoate]
Observed property [1]: 28
ulcers or erosions to the gastric / ulcerogenic liability (in words) [7]: none and No ulcerogenic liability
% Incidence of ulcer divided by 10 [7]: 0
Average of ulcer number [7]: 0
Average severity of ulcer [7]: 0
Number of animals with ulcer [7]: 0
Ulcer index [7]: 0
IC50 [3]: 5.42 µM
SI [4]: 0.387
IC50 [4]: 14 ± 0.4 µM
1/(observed property) [6]: 0.0158
Observed property [6]: 63.3
decrease in NO production in comparison to LPS-stimulated cells (in words) [8]: insignificant decrease

COc1ccc2c(c1)c(CC(=O)O)c(C)n2C(=O)c1ccc(Cl)cc1 [Indo, indomethacin, reference compound]
% Protection ([1]; After 30 min.): (87.1) %
% Protection ([1]; After 60 min.): 1.6** (80.9) %
% Protection ([1]; After 90 min.): (57.9) %
% Protection ([1]; After 120 min.): (56.5) %
Potency [1]: 100%
% Incidence of ulcer divided by 10 [7]: 10
Average of ulcer number [7]: 2
Average severity of ulcer [7]: 1.67
Number of animals with ulcer [7]: 6/6
cytotoxicity (MTT) in comparison to control [9]: no significant cytotoxicity
Potency [6]: 100.0%
Potency ([6]; listed as indomethacin): 100%
